Assay results from paper PMC8706998, “Lipid Nanocarriers-Loaded Nanocomposite as a Suitable Platform to Release Antibacterial and Antioxidant Agents for Immediate Dental Implant Placement Restorative Treatment” (Pharmaceutics, 2021).

Experiments:
[1] = Ex vivo permeation/penetration experiments in Franz-type cells; format: in vitro ADME, pig; details: from 30 mg BioQ-CPX
Description: Tissue specimens were obtained from the vestibular area of the retromolar trigone derived from 6–8-month-old pigs supplied by the Municipal Slaughterhouse of Villabate (Palermo, Italy) since withdrawn from animals intended for human consumption. By a refrigerated transport box, the specimens were immediately transferred to the laboratory within 1 h from animal sacrifice and surgically treated to remove both adipose and connective tissues in excess. Afterward, they were dipped for 30 min in a 5% THR (w/v) isotonic solution and then stored at −80 °C for a minimum period of one week. Before the permeation/penetration experiments, tissue samples were accurately washed to remove the cryoprotectant, and, subsequently, thermal shocked to obtain the buccal mucosa. Briefly, tissue samples were dipped for 30 s in a pre-warmed (70 °C) isotonic solution, and then the mucosa was carefully peeled off from the connective tissue, obtaining the heat-separated epithelium along with the intact basal lamina. Finally, it was equilibrated in an isotonic solution for 3 h by replacing the medium every 15 min to remove all the biological matter, which could affect the analysis, before use.
The ex vivo permeation/penetration studies were carried out using vertical Franz-type diffusion cells. Briefly, appropriate sections of buccal mucosa were mounted between the donor and the acceptor chambers filled with 1 mL of citrate buffer pH 5.5 and 15 mL of citrate buffer pH 5.5 amended with acetic acid 0.1% (v/v), Acys 0.002% (w/v), and β-CD 3% (w/v). The whole system was equilibrated at 37 ± 0.5 °C for 30 min. Afterward, the medium was removed from the donor compartment, promptly replaced with 30 mg of BioQ-CPX, and soaked with 0.2 mL of citrate buffer pH 5.5. Every 30 min, aliquots (0.5 mL) were withdrawn from the acceptor chamber and immediately replaced with the same volume of fresh acceptor fluid to maintain the sink conditions. Experiments were carried out at 37 ± 0.5 °C in the dark and under constant stirring, being stopped at different time points ranging from 1 to 6 h. The amount of permeated QRC and CPX were quantified by UV–Vis analysis. Data are reported as means ± SE (n = 6).
Briefly, the mucosa was dipped into 2 mL of methanol and warmed up to 60 °C. The extraction procedure was performed twice, and the collected extraction liquors were transferred into a 10 mL flask and brought to volume with fresh methanol. Thus, QRC and CPX amounts were determined by UV–Vis analysis. Results are reported as means ± SE.

[2] = QRC stability after UV irradiation by EPR spectroscopy; format: physicochemical
Description: EPR measurements were carried out on 25 mg of QRC and BioQ-CPX at room temperature using a Bruker ELEXSYS E-500 spectrometer (Bruker, Billerica, MA, USA) operated at 9.8 GHz (X-band), operating at 6 mW microwave power and 0.15 mT modulation amplitude. To evaluate the effects of light exposure in the samples, UV-A/UV-B irradiator alternatively equipped with lamps of 25 W and 50 W (Light-Emitting Diode Philips, Amsterdam, The Netherlands) was used. Preliminarily, the paramagnetic center of QRC (pure drug) before and after 20 min of UV irradiation (50 W) was characterized. Afterwards, to evaluate the BioQ-CPX capability in preserving QRC from light exposure, aliquots of QRC and BioQ-CPX were irradiated by 25 W or 50 W lamps over time. […] UV irradiation was accomplished up to 60 min for all samples and EPR analysis was carried out every 5 min. Signals were normalized to the QRC mass contained in each sample. Data are reported as mean ± SE (n = 3).

[3] = set-up: method as in doi:10.1016/j.jfoodeng.2010.04.001; details: Water pH 7; cited from earlier work

O=c1c(O)c(-c2ccc(O)c(O)c2)oc2cc(O)cc(O)c12 [QRC, quercetin]
maximum amount accumulated into the mucosa ([1]; after 5 h): about 5 % of drugs dose | amount accumulated into the mucosa ([1]; first hour from application): about 4 % of dose | UV exposure time until Hpp plateau (antioxidant power exhausted) ([2]; 25 W or 50 W lamp, irradiation up to 60 min): 25 min | EPR amplitude Hpp normalized to mass ([2]; 20 min UV irradiation, 50 W lamp): 1.018 u.a. | EPR amplitude Hpp normalized to mass ([2]; not irradiated): 0.054 u.a. | Solubility [3]: 0.002 [52] mg/mL
